Assay results reported in US6365753B1, “Phthalimides and herbicide containing the same as active component” (Mitsubishi Chemical Corporation, priority 1998, dated 2002).

Legend:
Type in all cases: in vivo
[1] = tested on: Scirpus juncoides; experiment: Submerged treatment test; conditions: 10 g/a active ingredient, treated 5th day from sowing, examined on the 2.8th day from treatment, herbicidal index
Method: (§1) Alluvial soil from a paddy field was put in a resin-made pot having an area of 200 cm^2. After fertilization, an adequate amount of water was added, and the soil was puddled and leveled. Seeds of Echinochloa crus-galli, Monochoria vaginalis, Rotala indica and Scirpus juncoides were sowed within a layer 0.5 cm below the surface of the soil. Water was poured onto the soil to keep a water depth of 3.5 cm.
(§2) On the 5th day from the sowing, the emulsifiable concentrate containing the compound of the invention as an active ingredient which was prepared in Formulation Example 3 was diluted with water. A prescribed amount of the diluted composition was dropped to the water so as to give 10 g of the active ingredient per are.
(§3) Cultivation was continued in a greenhouse, and the herbicidal effect was examined on the […] from the treatment. The results obtained are shown in Table 4 (the compound numbers in Table 4 correspond to those in Tables 1 and 2). The herbicidal effect was evaluated in terms of herbicidal index based on Y(%) obtained from equation:
(§4) y=[1−(Weight of weeds above the ground in a treated pot)/(Weight of weeds above the ground in a non-treated pot)]×100 (%)

[2] = tested on: Monochoria vaginalis; experiment: Submerged treatment test; conditions: 10 g/a active ingredient, treated 5th day from sowing, examined on the 2.8th day from treatment, herbicidal index
Method: as §1, §2, §3, §4

[3] = tested on: Rotala indica; experiment: Submerged treatment test; conditions: 10 g/a active ingredient, treated 5th day from sowing, examined on the 2.8th day from treatment, herbicidal index
Method: as §1, §2, §3, §4

[4] = tested on: Echinochloa crus-galli; experiment: Submerged treatment test; conditions: 10 g/a active ingredient, treated 5th day from sowing, examined on the 2.8th day from treatment, herbicidal index
Method: as §1, §2, §3, §4

[5] = tested on: Chenopodium album; experiment: Soil treatment test pre-emergence application; conditions: 10 g/a active ingredient, 28th day from treatment, herbicidal index
Method: (§5) Volcanic ash soil from a field was put in a resin-made pot having an area of 200 cm^2. After fertilization, soil previously mixed uniformly with the seeds of Digitaria ciliaris, Setaria viridis, Chenopodium album and Polygonum lapathifolium was scattered on the soil. The emulsifiable concentrate comprising the compound of the invention as an active ingredient which was obtained in Formulation Example 3 was diluted with water, and a prescribed amount of the diluted composition was sprayed uniformly to the surface of the soil by means of a small-sized power pressure spray to give 10 g of the active ingredient per are.
(§6) Thereafter, cultivation was continued in a greenhouse, and the herbicidal effect was examined on the 28th day from the treatment. The results obtained are shown in Table 5 (the compound numbers in Table 5 correspond to those in Tables 1 and 2). The herbicidal effect was evaluated based on the same criteria as in Test Example 1.

[6] = tested on: Digitaria ciliaris; experiment: Soil treatment test pre-emergence application; conditions: 10 g/a active ingredient, 28th day from treatment, herbicidal index
Method: as §5, §6

[7] = tested on: Setaria viridis; experiment: Soil treatment test pre-emergence application; conditions: 10 g/a active ingredient, 28th day from treatment, herbicidal index
Method: as §5, §6

[8] = tested on: Polygonum lapathifolium; experiment: Soil treatment test pre-emergence application; conditions: 10 g/a active ingredient, 28th day from treatment, herbicidal index
Method: as §5, §6

[9] = tested on: Brassica juncea; experiment: Foliar treatment test (1) post-emergence application; conditions: foliar treatment post-emergence at 1.0- to 2.0-leaf stage, 10 g/a active ingredient, 21st day from treatment; herbicidal index
Method: (§7) Volcanic ash soil from a field was put in a resin-made pot having an area of 200 cm^2. After fertilization, the seeds of Brassica juncea, Ipomoea purpurea, Echinochloa crus-galli and Alopeculus aequalis were cast on the soil and uniformly covered with the soil.
(§8) Cultivation was continued in a greenhouse, and when the weeds reached the 1.0- to 2.0-leaf stage, a prescribed amount of the emulsifiable concentrate comprising the compound of the invention as an active ingredient which was prepared in Formulation Example 3 as diluted with water was sprayed uniformly to the weeds by means of a small-sized power pressure spray to give 10 g of the active ingredient per are.
(§9) Thereafter, cultivation was further continued in the greenhouse, and the herbicidal effect was examined on the 21st day from the treatment. The results obtained are shown in Table 6 (the compound numbers in Table 6 correspond to those in Tables 1 and 2). The herbicidal effect was evaluated based on the same criteria as in Test Example 1.

[10] = tested on: Ipomoea purpurea; experiment: as above; conditions: foliar treatment post-emergence at 1.0- to 2.0-leaf stage, 10 g/a active ingredient, 21st day from treatment; herbicidal index
Method: as §7, §8, §9

[11] = tested on: Echinochloa crus-galli; experiment: as above; conditions: foliar treatment post-emergence at 1.0- to 2.0-leaf stage, 10 g/a active ingredient, 21st day from treatment; herbicidal index
Method: as §7, §8, §9

[12] = tested on: Alopeculus aequalis; experiment: as above; conditions: foliar treatment post-emergence at 1.0- to 2.0-leaf stage, 10 g/a active ingredient, 21st day from treatment; herbicidal index
Method: as §7, §8, §9
Note: ranges in brackets are in %.

CN(C)C(=O)C(Cl)Cc1cc(N2C(=O)c3ccccc3C2=O)c(F)cc1Cl (stereo not drawn) [Compound 14]
Herbicidal Effect Scirpus juncoides [1]: 3 (51-70)
Herbicidal Effect Monochoria vaginalis [2]: 5 (91-100)
Herbicidal Effect Rotala indica [3]: 5 (91-100)
Herbicidal Effect Echinochloa crus-galli [4]: 5 (91-100)
Herbicidal Effect Chenopodium album [5]: 5 (91-100)
Herbicidal Effect Digitaria ciliaris [6]: 3 (51-70)
Herbicidal Effect Setaria viridis [7]: 3 (51-70)
Herbicidal Effect Polygonum lapathifolium [8]: 5 (91-100)
Herbicidal Effect Brassica juncea [9]: 5 (91-100)
Herbicidal Effect Ipompoea-purpurea [10]: 5 (91-100)
Herbicidal Effect Echinochloa crus-galli [11]: 3 (51-70)
Herbicidal Effect Alopeculus sequalis [12]: 4 (71-90)

CCCOC(=O)C(Cl)Cc1cc(N2C(=O)c3ccccc3C2=O)c(F)cc1Cl (stereo not drawn) [Compound 6]
Herbicidal Effect Scirpus juncoides [1]: 5 (91-100)
Herbicidal Effect Monochoria vaginalis [2]: 5 (91-100)
Herbicidal Effect Rotala indica [3]: 5 (91-100)
Herbicidal Effect Echinochloa crus-galli [4]: 5 (91-100)
Herbicidal Effect Chenopodium album [5]: 5 (91-100)
Herbicidal Effect Digitaria ciliaris [6]: 0 (0-5)
Herbicidal Effect Setaria viridis [7]: 0 (0-5)
Herbicidal Effect Polygonum lapathifolium [8]: 5 (91-100)
Herbicidal Effect Brassica juncea [9]: 5 (91-100)
Herbicidal Effect Ipompoea-purpurea [10]: 5 (91-100)
Herbicidal Effect Echinochloa crus-galli [11]: 2 (31-50)
Herbicidal Effect Alopeculus sequalis [12]: 2 (31-50)

C=CCNC(=O)C(Cl)Cc1cc(N2C(=O)c3ccccc3C2=O)c(F)cc1Cl (stereo not drawn) [Compound 12]
Herbicidal Effect Scirpus juncoides [1]: 1 (6-30)
Herbicidal Effect Monochoria vaginalis [2]: 5 (91-100)
Herbicidal Effect Rotala indica [3]: 5 (91-100)
Herbicidal Effect Echinochloa crus-galli [4]: 5 (91-100)
Herbicidal Effect Chenopodium album [5]: 5 (91-100)
Herbicidal Effect Digitaria ciliaris [6]: 4 (71-90)
Herbicidal Effect Setaria viridis [7]: 4 (71-90)
Herbicidal Effect Polygonum lapathifolium [8]: 4 (71-90)
Herbicidal Effect Brassica juncea [9]: 5 (91-100)
Herbicidal Effect Ipompoea-purpurea [10]: 5 (91-100)
Herbicidal Effect Echinochloa crus-galli [11]: 4 (71-90)
Herbicidal Effect Alopeculus sequalis [12]: 2 (31-50)

CC(C)OC(=O)C(Cl)Cc1cc(N2C(=O)c3ccccc3C2=O)c(F)cc1Cl (stereo not drawn) [Compound 7, Isopropyl 2-Chloro-3-(2-chloro-4-fluoro-5-phthalimidophenyl)propionate]
Herbicidal Effect Scirpus juncoides [1]: 5 (91-100)
Herbicidal Effect Monochoria vaginalis [2]: 5 (91-100)
Herbicidal Effect Rotala indica [3]: 5 (91-100)
Herbicidal Effect Echinochloa crus-galli [4]: 5 (91-100)
Herbicidal Effect Chenopodium album [5]: 5 (91-100)
Herbicidal Effect Digitaria ciliaris [6]: 1 (6-30)
Herbicidal Effect Setaria viridis [7]: 1 (6-30)
Herbicidal Effect Polygonum lapathifolium [8]: 5 (91-100)
Herbicidal Effect Brassica juncea [9]: 5 (91-100)
Herbicidal Effect Ipompoea-purpurea [10]: 5 (91-100)
Herbicidal Effect Echinochloa crus-galli [11]: 3 (51-70)
Herbicidal Effect Alopeculus sequalis [12]: 2 (31-50)

CCOC(=O)C(Cl)Cc1cc(N2C(=O)c3ccc(F)cc3C2=O)c(F)cc1Cl (stereo not drawn) [Compound 15, Ethyl 2-Chloro-3-[2-chloro-4-fluoro-5-(4-fluorophthalimido)phenyl]propionate]
Herbicidal Effect Scirpus juncoides [1]: 3 (51-70)
Herbicidal Effect Monochoria vaginalis [2]: 5 (91-100)
Herbicidal Effect Rotala indica [3]: 5 (91-100)
Herbicidal Effect Echinochloa crus-galli [4]: 4 (71-90)
Herbicidal Effect Chenopodium album [5]: 5 (91-100)
Herbicidal Effect Digitaria ciliaris [6]: 2 (31-50)
Herbicidal Effect Setaria viridis [7]: 2 (31-50)
Herbicidal Effect Polygonum lapathifolium [8]: 5 (91-100)
Herbicidal Effect Brassica juncea [9]: 5 (91-100)
Herbicidal Effect Ipompoea-purpurea [10]: 5 (91-100)
Herbicidal Effect Echinochloa crus-galli [11]: 4 (71-90)
Herbicidal Effect Alopeculus sequalis [12]: 4 (71-90)
